# Test results from the NIST ThermoML archive (doi:10.1016/j.fluid.2015.03.030).
# ± gives the expanded uncertainty stated by the source.
# Assay: Boiling temperature at pressure P
# Settings: Liquid, Ebulliometric method (Recirculating still)
structure (smiles),measurement,setting,value
O=C1OC(=O)c2cc(Cl)ccc21 [4-chlorophthalic anhydride],Boiling temperature at pressure P,3.412 kPa,174.12 ± 0.38 °C
same,Boiling temperature at pressure P,4.468 kPa,181.16 ± 0.36 °C
same,Boiling temperature at pressure P,5.15 kPa,184.99 ± 0.31 °C
same,Boiling temperature at pressure P,5.626 kPa,187.38 ± 0.27 °C
same,Boiling temperature at pressure P,6.455 kPa,191.23 ± 0.26 °C
same,Boiling temperature at pressure P,7.207 kPa,194.4 ± 0.22 °C
same,Boiling temperature at pressure P,8.268 kPa,198.19 ± 0.2 °C
same,Boiling temperature at pressure P,9.221 kPa,201.31 ± 0.18 °C
same,Boiling temperature at pressure P,10.66 kPa,205.62 ± 0.17 °C
same,Boiling temperature at pressure P,11.74 kPa,208.48 ± 0.15 °C
same,Boiling temperature at pressure P,12.99 kPa,211.60 ± 0.14 °C
same,Boiling temperature at pressure P,14.48 kPa,214.97 ± 0.13 °C
same,Boiling temperature at pressure P,15.93 kPa,217.97 ± 0.12 °C
same,Boiling temperature at pressure P,17.17 kPa,220.36 ± 0.11 °C
same,Boiling temperature at pressure P,18.59 kPa,222.89 ± 0.11 °C
same,Boiling temperature at pressure P,20.24 kPa,225.72 ± 0.1 °C
same,Boiling temperature at pressure P,21.71 kPa,228.1 ± 0.1 °C
same,Boiling temperature at pressure P,23.52 kPa,230.67 ± 0.09 °C
same,Boiling temperature at pressure P,25.37 kPa,233.31 ± 0.09 °C
same,Boiling temperature at pressure P,27.38 kPa,235.90 ± 0.08 °C
same,Boiling temperature at pressure P,29.59 kPa,238.67 ± 0.08 °C
same,Boiling temperature at pressure P,31.99 kPa,241.41 ± 0.08 °C
same,Boiling temperature at pressure P,34.47 kPa,244.18 ± 0.07 °C
same,Boiling temperature at pressure P,37.26 kPa,247.0 ± 0.07 °C
same,Boiling temperature at pressure P,40.2 kPa,249.76 ± 0.07 °C
same,Boiling temperature at pressure P,43.82 kPa,252.96 ± 0.06 °C
same,Boiling temperature at pressure P,46.79 kPa,255.48 ± 0.06 °C
same,Boiling temperature at pressure P,50.5 kPa,258.40 ± 0.06 °C
same,Boiling temperature at pressure P,54.42 kPa,261.32 ± 0.06 °C
same,Boiling temperature at pressure P,58.75 kPa,264.30 ± 0.06 °C
same,Boiling temperature at pressure P,63.31 kPa,267.29 ± 0.05 °C
same,Boiling temperature at pressure P,68.3 kPa,270.4 ± 0.05 °C
same,Boiling temperature at pressure P,72.98 kPa,273.1 ± 0.05 °C
same,Boiling temperature at pressure P,79.29 kPa,276.50 ± 0.05 °C
same,Boiling temperature at pressure P,86.41 kPa,280.09 ± 0.05 °C
same,Boiling temperature at pressure P,92.12 kPa,282.82 ± 0.05 °C
same,Boiling temperature at pressure P,99.1 kPa,286.02 ± 0.05 °C
same,Boiling temperature at pressure P,101 kPa,287 ± 0.05 °C
"O=C1OC(=O)c2cc(F)ccc21 [5-fluoro-1,3-isobenzofurandione]",Boiling temperature at pressure P,3.549 kPa,153.68 ± 0.36 °C
same,Boiling temperature at pressure P,4.301 kPa,158.39 ± 0.32 °C
same,Boiling temperature at pressure P,5.517 kPa,164.86 ± 0.28 °C
same,Boiling temperature at pressure P,6.582 kPa,169.60 ± 0.23 °C
same,Boiling temperature at pressure P,7.86 kPa,174.33 ± 0.21 °C
same,Boiling temperature at pressure P,8.973 kPa,178.04 ± 0.18 °C
same,Boiling temperature at pressure P,10.5 kPa,182.54 ± 0.16 °C
same,Boiling temperature at pressure P,12.25 kPa,187.07 ± 0.15 °C
same,Boiling temperature at pressure P,13.2 kPa,189.31 ± 0.13 °C
same,Boiling temperature at pressure P,15.16 kPa,193.52 ± 0.12 °C
same,Boiling temperature at pressure P,17.63 kPa,198.20 ± 0.11 °C
same,Boiling temperature at pressure P,18.81 kPa,200.23 ± 0.1 °C
same,Boiling temperature at pressure P,21.16 kPa,204.02 ± 0.1 °C
same,Boiling temperature at pressure P,23.05 kPa,206.79 ± 0.09 °C
same,Boiling temperature at pressure P,26 kPa,210.78 ± 0.08 °C
same,Boiling temperature at pressure P,31.21 kPa,216.91 ± 0.08 °C
same,Boiling temperature at pressure P,36.41 kPa,222.26 ± 0.07 °C
same,Boiling temperature at pressure P,40.95 kPa,226.48 ± 0.07 °C
same,Boiling temperature at pressure P,45.02 kPa,229.90 ± 0.06 °C
same,Boiling temperature at pressure P,47.3 kPa,231.69 ± 0.06 °C
same,Boiling temperature at pressure P,48.21 kPa,232.43 ± 0.06 °C
same,Boiling temperature at pressure P,51.3 kPa,234.71 ± 0.06 °C
same,Boiling temperature at pressure P,53.29 kPa,236.12 ± 0.06 °C
same,Boiling temperature at pressure P,55.87 kPa,237.93 ± 0.06 °C
same,Boiling temperature at pressure P,57.3 kPa,238.87 ± 0.06 °C
same,Boiling temperature at pressure P,59.62 kPa,240.39 ± 0.06 °C
same,Boiling temperature at pressure P,65.49 kPa,244.02 ± 0.06 °C
same,Boiling temperature at pressure P,69.16 kPa,246.14 ± 0.05 °C
same,Boiling temperature at pressure P,73.58 kPa,248.63 ± 0.05 °C
same,Boiling temperature at pressure P,78.49 kPa,251.18 ± 0.05 °C
same,Boiling temperature at pressure P,85.68 kPa,254.76 ± 0.05 °C
same,Boiling temperature at pressure P,90.57 kPa,257.03 ± 0.05 °C
same,Boiling temperature at pressure P,93.83 kPa,258.51 ± 0.05 °C
same,Boiling temperature at pressure P,96.02 kPa,259.49 ± 0.05 °C
same,Boiling temperature at pressure P,97.24 kPa,260.02 ± 0.05 °C
same,Boiling temperature at pressure P,101.21 kPa,261.70 ± 0.05 °C
